The text below walks through data of patent US4480118A, “Carboxylic acid ester and an insecticidal and/or acaricidal composition containing the same” (priority 1981, dated 1984).

Converted amounts (≈) assume the structure as drawn. Like-named read-outs stand apart in the source and are kept apart here.

In series [1] the test system is northern house mosquito. Briefly: Activity of oil spray against adult female northern house mosquito (glass chamber). It is filed as in vivo. The note with it: for mortality, Northern house mosquito: in vivo, 24 h; for KT50 (50% knockdown time), Northern house mosquito: oil spray 0.5 ml, 10 minutes exposure. The procedure: (§1) 0.1 Part of each compound Nos. 10, 12, 15, 17, 18, 19, 22, 23 and 29 of this invention is dissolved in deodorized kerosene and made up to 100 parts with kerosene to obtain an oil spray.
(§2) Ten adult houseflies and ten adult female northern house mosquitos were released in a glass chamber, 70×70×70 cm in size. An oil spray preparation (0.5 ml) obtained in Preparation Example 1 was sprayed inside the chamber and the insects were exposed to the descending mist for 10 minutes, during which time the number of knocked-down insects was counted at predetermined time intervals to determine the 50% knockdown time (KT50). On the following day, the dead and alive insects were observed.

The subject of series [2] is northern house mosquito. The experiment in a line: Mosquito coil knockdown of adult female northern house mosquitos. It is filed as in vivo. The procedure:
Each 0.6 g of the present compounds Nos. 10, 16 and 27 is dissolved in 20 ml of methanol and uniformly mixed with 99.4 g of a carrier for mosquito coils (a mixture of Tabu powder, pyrethrum marc and wood powder in a proportion of 3:5:1) by thorough stirring. After evaporation of methanol and addition of 150 ml of water, the mixture is thoroughly kneaded, then molded, and dried to obtain a mosquito coil.
About 50 adult female northern house mosquitos were released into a glass chamber, 70×70×70 cm, and a battery-operated small fan (diameter of rotation of the vane: 13 cm) disposed in the cabinet was operated. A mosquito coil obtained in Preparation Example 6 was ignited at both ends and placed at the center of bottom of the chamber. After 20 minutes, the number of knocked down insects was counted.

For series [3], the system named is housefly. Briefly: Insecticidal activity against housefly (Filter paper bait and contact method). It counts as in vivo. The conditions noted are these: Musca domestica; 500 ppm, 48 hours, adult female houseflies; read-out: Mortality. The method, then: Each 20 parts of the present compounds No. 1 to No. 29, 10 parts of an emulsifier (Sorpol 3005X; trademark for Toho Chemical Co.) and 70 parts of xylene are thoroughly mixed by stirring to obtain an emulsifiable concentrate of each compound.
A piece of filter paper, 5.5 cm in diameter, was laid on the bottom of a polyethylene cup of the identical inner diameter. An emulsifiable concentrate prepared in the same manner as in Preparation Example 2 was diluted with water. To the filter paper, was added dropwise 0.7 ml of the diluted sample (500 ppm in concentration). Sucrose (30 mg) was placed on the filter paper to serve as bait. Ten adult female houseflies were released into the cup, closed with a cover, and observed for the number of dead and alive insects after 48 hours to calculate the mortality (2 replications).

Series [4] deals with housefly. Briefly: Activity of oil spray against adult housefly (glass chamber). It counts as in vivo. The note with it: oil spray 0.5 ml, 10 minutes exposure; for mortality, House fly: observed on the following day, 1440 min. The procedure: as §1, §2
For series [5], the system named is housefly. Briefly: Insecticidal activity against housefly (Topical application method). The conditions noted are these: dorsal thorax, adult female, 24 hours. It counts as in vivo. The method, then: The present compounds and the reference compounds were diluted with acetone to prescribed concentrations. Each 0.5 μl of the diluted samples was applied topically with a microsyringe onto the dorsal thorax of an adult female housefly. The flies were fed and observed for the number of dead and alive insects after 24 hours. LD50 (median lethal dose) was calculated from the mortalities at each dosage by probit method.

Series [6] has as its system tobacco cutworm. Briefly: Insecticidal activity against tobacco cutworm. The note with it: 24 h, read-out: LC50 (median lethal concentration), treated artificial diet, third-instar larvae, 24 hours. It counts as in vivo. The procedure:
An artificial diet (15 g) for tobacco cutworm was wet with 2 ml of the prescribed aqueous dilution of an emulsifiable concentrate obtained in Preparation Example 2 or of that obtained from reference compounds. The diet thus treated was placed in a polyethylene cup of 11 cm in diameter.

The test system of series [7] is green rice leafhopper. Briefly: Insecticidal activity against green rice leafhopper. The conditions noted are these: Nephotettix cincticeps, 24 h.

Usually mortality stands for the percentage killed.

Consider `C#CCC1=C(C)C(OC(=O)C2C(C)(C)C23Cc2ccccc2C3)CC1=O` (stereo not drawn) [Compound 10], for which, in series [1], the “mortality, Northern house mosquito” value came to 100% and the “KT50 (50% knockdown time), Northern house mosquito” value was 320 s. Moreover, the “Percent knocked down insects after 20 minutes” value (shortened to “Percent knocked down insects”) in series [2] turned out to be 94%. In addition, the mortality at 500 ppm in series [3] came to 100%. Further, in series [4], the “KT50 (50% knockdown time), House fly” value was 210 s and the “mortality, House fly” value is reported as 30%.
As to `C=CCC1=C(C)C(OC(=O)C2C(C)(C)C23Cc2ccccc2C3)CC1=O` (stereo not drawn) [Compound 15], in series [1], the “mortality, Northern house mosquito” value came to 95% and the “KT50 (50% knockdown time), Northern house mosquito” value amounted to 300 s. Moreover, the “Percent knocked down insects” value in series [2] was 90%. Further, the mortality at 500 ppm in series [3] was 100%. Moreover, in series [4], the “KT50 (50% knockdown time), House fly” value was found to be 250 s and the “mortality, House fly” value is given as 20%.
Take `CC1(C)[C@@H](C(=O)OC(C#N)c2cccc(Oc3ccccc3)c2)[C@@]12Cc1ccccc1O2` (relative stereo) [Compound 18]: in series [1], the “mortality, Northern house mosquito” value was 100% and the “KT50 (50% knockdown time), Northern house mosquito” value was found to be 456 s. In series [5], the “LD50 (median lethal dose)” value is recorded as 0.0061 μg/female. Further, the LC50 in series [6] was determined as 1.8 µg/mL (≈ 4.23 µM). Further, the mortality at 500 ppm in series [3] was 100%. Besides, in series [4], the “KT50 (50% knockdown time), House fly” value was 600 s and the “mortality, House fly” value was 10%.
Take `CC1(C)C(C(=O)OC(C#N)c2cccc(Oc3ccccc3)c2)C12Cc1ccc(Br)cc1C2` (stereo not drawn) [Compound 5]: the “LD50 (median lethal dose)” value in series [5] amounted to 0.018 μg/female. Further, the LC50 in series [6] came to 7.2 µg/mL (≈ 14.3 µM). Further, in series [3], the mortality at 500 ppm amounted to 100%. The mortality at 50 ppm in series [7] (read-out: Percent mortality days after spraying: 0), in series [7] (read-out: Percent mortality days after spraying: 3) and in series [7] (read-out: Percent mortality days after spraying: 7) was 100% in each case.
With `C#CC(OC(=O)C1C(C)(C)C12Cc1ccc(F)cc1C2)C(C)=CCC` (stereo not drawn) [Compound 27], the “Percent knocked down insects” value in series [2] is recorded as 10%. The mortality at 500 ppm in series [3] worked out at 100%.
